Here are results for nine compounds from ChEMBL document CHEMBL1201862, “PubChem BioAssay data set” (2004).

The term EC50 denotes the midpoint of the concentration-response curve. The term IC50 denotes the concentration needed to halve the response being measured. In general, CC50 refers to the concentration giving 50% cytotoxicity. The term AC50 denotes the concentration at which the activity in the assay is half-maximal.

Active and inactive are the calls of the source.

Assay [1] is described as follows: Luminescence Cell-Based Dose Response to Identify Activators of 5'UTR Stem-Loop Driven Prion Protein mRNA Translation in H4-C Neuroglioblastoma Cells. [Related pubchem assays: 1829 (Project Summary), 1814 (Primary HTS)]. Format: functional.
The nature of assay [2]: Luminescence Cell-Based Dose Confirmation HTS to Identify Activators of 5'UTR Stem-Loop Driven Alpha-Synuclein mRNA Translation in H4 Neuroglioblastoma Cells. [Related pubchem assays: 1829 (Project Summary), 1814 (Primary HTS)]. Format: functional.
Assay [3] in a line: Luminescence Cell-Based Dose Response HTS to Identify Activators of Luciferase Translation or Activity in H4 […] Cells. [Related pubchem assays: 1829 (Project Summary), 1814 (Primary HTS)]. Format: functional.
For another assay, the system named is H4. Briefly: Luminescence Cell-Based Dose Response HTS to Identify Activators of 5'UTR Stem-Loop Driven Prion Protein mRNA Translation in H4 Neuroglioblastoma Cells. [Related pubchem assays: 1829 (Project Summary), 1814 (Primary HTS)]. Format: functional. Conditions: Homo sapiens.
Assay [4] in a line: Luminescence Cell-Based Dose Response to Identify Activators of Luciferase Translation or Activity in H4-C Neuroglioblastoma Cells. [Related pubchem assays: 1829 (Project Summary), 1814 (Primary HTS)]. Format: functional.
Another assay deals with Large T antigen (Simian virus 40, UniProt P03070). Format: functional, Betapolyomavirus macacae.
Chain of Large T antigen (P03070 whole entry): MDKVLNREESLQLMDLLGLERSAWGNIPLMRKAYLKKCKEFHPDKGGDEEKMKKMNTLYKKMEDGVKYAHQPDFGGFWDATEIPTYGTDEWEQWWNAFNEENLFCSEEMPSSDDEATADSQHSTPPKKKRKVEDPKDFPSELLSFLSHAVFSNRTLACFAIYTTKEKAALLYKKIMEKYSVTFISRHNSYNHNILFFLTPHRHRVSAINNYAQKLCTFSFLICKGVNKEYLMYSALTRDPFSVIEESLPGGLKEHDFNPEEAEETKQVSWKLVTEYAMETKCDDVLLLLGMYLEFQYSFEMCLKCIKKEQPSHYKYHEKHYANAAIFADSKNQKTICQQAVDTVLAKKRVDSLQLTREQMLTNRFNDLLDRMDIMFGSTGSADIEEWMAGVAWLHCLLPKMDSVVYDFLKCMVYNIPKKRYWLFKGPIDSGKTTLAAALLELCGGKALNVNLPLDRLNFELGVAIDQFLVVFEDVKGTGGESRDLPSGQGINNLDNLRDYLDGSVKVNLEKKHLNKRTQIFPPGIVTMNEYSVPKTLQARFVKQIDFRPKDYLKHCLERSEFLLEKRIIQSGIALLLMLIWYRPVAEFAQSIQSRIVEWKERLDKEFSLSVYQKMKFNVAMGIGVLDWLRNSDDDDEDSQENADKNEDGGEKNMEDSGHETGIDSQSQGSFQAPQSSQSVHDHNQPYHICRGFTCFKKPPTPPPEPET
Assay [5] in a line: Luminescence Cell-Based Dose Confirmation to Identify Activators of 5'UTR Stem-Loop Driven Alpha-Synuclein mRNA Translation in H4 Neuroglioblastoma Cells. [Related pubchem assays: 1829 (Project Summary), 1814 (Primary HTS)]. Format: functional.
The target in assay [6] is Induced myeloid leukemia cell differentiation protein Mcl-1 (Homo sapiens, UniProt Q07820). Format: functional.
Chain of Induced myeloid leukemia cell differentiation protein Mcl-1 (Q07820 whole entry): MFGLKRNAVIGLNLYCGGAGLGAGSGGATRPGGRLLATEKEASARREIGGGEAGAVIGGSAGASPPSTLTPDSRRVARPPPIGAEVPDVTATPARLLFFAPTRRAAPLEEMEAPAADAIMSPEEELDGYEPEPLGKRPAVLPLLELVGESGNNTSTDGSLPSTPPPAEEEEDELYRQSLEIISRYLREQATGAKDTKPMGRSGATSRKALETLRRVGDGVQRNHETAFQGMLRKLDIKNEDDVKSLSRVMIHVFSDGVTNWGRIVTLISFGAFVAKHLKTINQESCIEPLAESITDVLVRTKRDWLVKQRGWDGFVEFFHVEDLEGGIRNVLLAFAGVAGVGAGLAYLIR
Assay [7] can be described thus: Luminescent dose response cell-based high throughput screening assay for inhibitors of the Janus kinase 2 mutant JAK2V617F. [Related pubchem assays: 1446 (Primary screen.), 1521 (Confirmation assay.), 1486 (Counter screen.)]. Format: functional.
A short description of assay [8]: viability of uninfected HEp-2 cells – cell-based, HTS, cytotoxicity control for RSV inhibitor project, dose response (AID 2410). Format: functional. Conditions: human respiratory syncytial virus.
Assay [9] in a line: rise of 2N DNA cells, HeLa – IC50, dose response (AID 1117349). Format: functional, cell-based.
Assay [10] in a line: CellTiter-Glo luminescence survival assay, SW480 colon tumor line, concentration-response curve, half-maximal inhibitory concentration (AID 1117338). Format: functional.
A short description of assay [11]: RKO cell viability reduction, dose response, CellTiter-Glo luminescence (AID 1117322). Format: functional. (In general: In ATP-based viability assays light output follows the ATP content of the culture.)
Assay [12] in a line: cytotoxicity toward HCT116 cells – cell-based, CellTiter-Glo luminescence, IC50, dose response (AID 1117332). Format: functional. Conditions: HCT-116.
Assay [13] in a line: SNU-C1 cell viability reduction, dose response, CellTiter-Glo luminescence (AID 1117323). Format: functional, cell-based.
Assay [14] in a line: cytotoxicity toward Colo320 cells – cell-based, CellTiter-Glo luminescence, IC50, dose response (AID 1117334). Conditions: COLO 320. Format: functional.
Assay [15] can be described thus: rise of 4N DNA cells, HeLa – IC50, dose response (AID 1117351). Format: functional, cell-based.
The nature of assay [16]: cytotoxicity toward HT-29 cells – cell-based, CellTiter-Glo luminescence, IC50, dose response (AID 1117330). Format: functional.
The nature of assay [17]: Reduced DLD-1 viability, concentration-response, CellTiter-Glo luminescence (AID 1117352). Format: functional.
A short description of assay [18]: HCT116 cell viability decrease, GSK3B pretreatment – CellTiter-Glo, IC50, dose response (AID 1117339). Format: functional. Conditions: HCT-116.
In assay [19] the target is Neuropeptide Y receptor type 1 (Homo sapiens, UniProt P25929). Kind of assay: IC50 of human NPY-Y1 blockers – cell-based, dose response (AID 1277). Format: functional.
Chain of Neuropeptide Y receptor type 1 (P25929 whole entry): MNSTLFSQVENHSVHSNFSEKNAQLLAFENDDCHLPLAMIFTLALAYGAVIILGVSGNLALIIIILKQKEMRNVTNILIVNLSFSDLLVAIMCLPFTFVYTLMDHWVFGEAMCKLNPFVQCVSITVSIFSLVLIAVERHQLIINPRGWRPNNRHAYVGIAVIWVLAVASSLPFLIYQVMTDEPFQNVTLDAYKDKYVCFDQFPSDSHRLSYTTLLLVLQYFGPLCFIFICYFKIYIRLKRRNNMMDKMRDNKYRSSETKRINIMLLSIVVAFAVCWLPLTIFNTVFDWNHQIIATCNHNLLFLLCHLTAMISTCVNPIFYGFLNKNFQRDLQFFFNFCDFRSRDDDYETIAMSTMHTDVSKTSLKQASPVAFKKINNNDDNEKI
The target of assay [20] is T1, Heat shock protein HSP 90-alpha (Homo sapiens, UniProt P07900). Format: functional, organism-based.
For another assay, the target named is Protein Tat (Human immunodeficiency virus type 1 group M subtype B (isolate HXB2)(HIV-1), UniProt P04608). Format: functional.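 Note: tat binding to TAR RNA read out by fluorescence polarization.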
Chain of Protein Tat (P04608 whole entry): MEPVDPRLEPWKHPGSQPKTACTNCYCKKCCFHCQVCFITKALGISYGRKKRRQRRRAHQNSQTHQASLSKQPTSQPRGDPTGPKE
Assay [21] in a line: viability loss in THP-1 monocytes – THP-1 cells, cytotoxicity control for Vif-APOBEC3G degradation inhibitor project, dose response (AID 1117359). Format: functional. Conditions: THP-1.
Assay [22] addresses T1, Heat shock protein HSP 90-alpha. Kind of assay: Luminescence-based dose response biochemical high throughput screening assay for inhibitors of the Heat Shock Protein 90 (HSP90). [Related pubchem assays: 1831 (Summary AID.), 1846 (Confirmation screen.), 1789 (Primary screen.)].
Assay [23] can be described thus: Dd2 parasite growth inhibition in erythrocytes – SYBR Green, dry powder samples, set 9, dose response (AID 1159568). Format: functional, cell-based.

For `Oc1ccc(-c2csc(Nc3ncccn3)n2)cc1O`, the EC50 in assay [1] is 815 nM (active); in [2], 100 nM (active); in assay [3] it was 3450 nM (active); with H4, 125 nM (active); in assay [4] it was > 12000 nM (not active); in assay [5] it was 670 nM (active). Besides, the IC50 is 14000 nM (active) at Large T antigen and 3520 nM (active) in assay [6].
`CCCn1c(CN(C)Cc2ccccc2)nc2c1c(=O)n(C)c(=O)n2C`: the half-inhibitory concentration (IC50) in [7] is 4920 nM (active).
For the compound `O=C(Nc1nc(-c2ccc3c(c2)OCCO3)cs1)C1CCCC1`, the CC50 in assay [8] is 21000 nM (active). In addition, the concentration for a half-maximal effect (EC50) was 365 nM (active) in assay [1], < 100 nM (inconclusive) in [3], 270 nM (active) in assay [4] and 247 nM (active) in assay [5].
`CC[C@H]1CN2CCc3cc(OC)c(OC)cc3[C@@H]2C[C@@H]1C[C@H]1NCCc2cc(OC)c(OC)cc21` [EMETINE]: the IC50 in assay [9] is > 10000 nM (inactive); in [10] it was 1 nM (active); in assay [11] it was 8.31 nM (active); in assay [12], 61.5 nM (active); in assay [13], 2.28 nM (active); in assay [14], 22.1 nM (active). The IC50 in [15] is > 10000 nM (inactive); in assay [16], 16.3 nM (active); in [17], 11.6 nM (active); in [18], 1 nM (active).
`CCc1cc(-c2n[nH]cc2-c2ccc3c(c2)OCO3)c(O)cc1O`: the half-inhibitory concentration (IC50) in [19] was 13300 nM (not active).
With `O=C(Nc1nc(-c2ccco2)c(-c2ccco2)s1)c1ccco1`, the AC50 in assay [20] was 5170 nM (active). Besides, the IC50 at Protein Tat was > 100000 nM (active). Moreover, in assay [21], the CC50 is > 40000 nM (active).
On to `COC(=O)C1CCN(C(=O)c2ccc3nc(-c4cccc(OC)c4)oc3c2)CC1`, for which the concentration for half-maximal inhibition (IC50) in assay [22] was 1050 nM (active).
Consider `COc1ccc(S(=O)(=O)Nc2ccc3c(c2)C(=O)N([C@H](C)CO)C[C@@H](C)[C@H](CN(C)Cc2ccc(C(F)(F)F)cc2)OCCCC[C@@H](C)O3)cc1`, for which the AC50 in [23] is 3690 nM (active).
Take `COc1ccc(CCN2C(=O)CC(Nc3ccc(N4CCOCC4)cc3)C2=O)cc1OC` (stereo unspecified): the concentration for half-maximal inhibition (IC50) on Protein Tat is 18800 nM (inconclusive).
